Non-standard residues stand in square brackets, D forms with d. Residues, ends and D or L forms follow the SMILES beside them. dPhe(4-Cl) = N[C@H](Cc1ccc(Cl)cc1)C(=O)O; d2Nal = N[C@H](Cc1ccc2ccccc2c1)C(=O)O; dCit = NC(=O)NCCC[C@@H](N)C(=O)O; d3Pal = N[C@H](Cc1cccnc1)C(=O)O
Legend:
[1] = test system: BPH patients; conditions: cited from earlier work
[2] = test system: BPH patients; test: Clinical therapy of BPH with Cetrorelix; type: in vivo
Experimental: Cetrorelix is administered in a dose of 0.5 mg to 2 mg daily for 4 to 8 weeks for the therapy of BPH. A dose of 5 mg to 30 mg, dispensed once per week or every 10 days also over a time period of 4 to 8 weeks as well as one every two weeks or one injection per month of 20 mg to 60 mg can also decisively improve the clinical symptoms and signs. […] The prostate volume decreases by 20 to 40% during the treatment time of 4 to 8 weeks. […] In addition, at least 30% of the patients achieve an improvement of the urine flow of 6 ml/sec with this therapy. This is almost equivalent to an improvement like that associated with the golden standard operation, and in considerably shorter time. […] These clinical benefits continue for at least 3 to 6 months after therapy. This allows a long-term therapy of BPH with only an intermittent treatment of 2 to max. 4 injection cycles over 4 to 8 weeks.

[3] = test system: Prostate carcinoma patients; conditions: 500 μg every 12 hours for 6 weeks; cited from earlier work

## CC(=O)N[C@H](Cc1ccc2ccccc2c1)C(=O)N[C@H](Cc1ccc(Cl)cc1)C(=O)N[C@H](Cc1cccnc1)C(=O)N[C@@H](CO)C(=O)N[C@@H](Cc1ccc(O)cc1)C(=O)N[C@H](CCCNC(N)=O)C(=O)N[C@@H](CC(C)C)C(=O)N[C@@H](CCCNC(=N)N)C(=O)N1CCC[C@H]1C(=O)N[C@H](C)C(N)=O [Cetrorelix] (Ac-[d2Nal][dPhe(4-Cl)][d3Pal]SY[dCit]LRP[dA]-NH2)
[1]; 500 μg every 12 hours for 4 weeks, no castration values during last three weeks
  testosterone levels during treatment: fluctuated at subnormal levels
[1]; 500 μg every 12 hours, all patients (BPH and prostate carcinoma), initially
  testosterone levels, initially: lowering in testosterone levels to a castration level
[2]; above those levels associated with castration
  testosterone decrease: Submaximal decreases of testosterone occur
[2]; human, in vivo
  limitations in sexual performance: No limitations in sexual performance are observed
  quality of life: significant improvements
[2]; treatment of 4 to 8 weeks
  increase of the peak flow of the urine: approximately 3 ml/sec
  patients achieving an improvement of the urine flow of 6 ml/sec: at least 30%
[3]
  overall condition of the patient: considerable improvement

Source: patent US6071882A, “Means for treating prostate hypertrophy and prostate cancer” (ASTA Medica AG, priority 1998, dated 2000)
